Experimental data published in patent publication EP4741392A1, “1H-PYRAZOLO[4,3-C]PYRIDINE COMPOUND, AND COMPOSITION THEREOF AND USE THEREOF” (Shenzhen TargetRx Co., Ltd., priority 2023, dated 2025).

What follows are compounds tested on Ramos cells with BTK WT (assay: Phosphor-BTK(Y223) assay, suspended cells). Details: Homo sapiens, Ramos, phosphorylated BTK Y223, Ramos cells with BTK WT.
Type: cell-based
Experimental: The purpose of this assay was to simply, quickly and directly detect the level of endogenous BTK phosphorylation in cells.
The steps for handling suspended cells were as follows: • 1) Ramos cells with BTK WT (2.5 k/well), BTK C481S (2.5 k/well), or BTK T474I (2.5 k/well) were plated in a 96-well plate, respectively. A compound of different concentration gradients was added using Tecan D300e, and the plate was incubated at 37 °C and 5% CO2 for 2 hours. • 2) 8.33 µL of 20 mM Na3VO4 was added to bring the final concentration to 5 mM, and the plate was incubated at 37 °C and 5% CO2 for 3 h. • 3) During the incubation, the following reagents were prepared: • 4x added lysis buffer: 24 vol 4x lysis buffer + 1 vol 25x blocking reagent. • p-BTK (Y223) cryptate-antibody and p-BTK (Y223) d2-antibody working solutions: 1 volume of each cryopreserved antibody (stored at - 20 °C) was added to 38 times the volume of assay buffer (stored at 4 °C), and mixed well. • 4) After the incubation was completed, 11.1 µL of 4x added lysis buffer was directly added. The plate was shaken at 800 rpm at room temperature for 30 min. • 5) The lysate was mixed well and 16 µL of it was transferred to a 384-well plate. 1 × added lysis buffer was used as a blank control. • 6) 4 µL of pre-mixed working solutions of the two antibodies (cryptate Ab:d2 Ab = 1:1) was added, and the plate was sealed. • 7) The plate was incubated at room temperature overnight. • 8) The plate was read at 665nm and 620nm using Biotek cytation3.0 microplate reader, and the ratio of 665/620nm of each well was calculated. Data analysis: IC50 was calculated using GraphPad Prism 7.0 software.
The IC50 (half-maximal phosphorylation inhibitory concentration) of the phosphorylated BTK Y223 of the compound was obtained using the following nonlinear fitting formula: Y = Bottom + (Top−Bottom)/(1+10^(∧)((LogIC50−X)*HillSlope)) [formula] • X: Log value of the compound concentration • Y: Inhibition rate (% inhibition) • Top: Maximum response • Bottom: Baseline response • HillSlope: Slope of the curve
The formula for calculating cell phosphorylation inhibition rate (inhibition rate %) was: Inhibition rate% = 1−(eachconcentrationwell-blankwell)/(positivecontrolwell−blankwell) [formula]

IC50 | SMILES
≤ 5 nM | COc1ccc(F)cc1C(=O)NCc1ccc(-c2ncc(-c3ccc(OC(F)(F)F)cn3)c3[nH]nc(N)c23)cc1 [Example 41, N-(4-(3-amino-7-(5-(trifluoromethoxy)pyridin-2-yl)-1H-pyrazolo[4,3-c]pyridin-4-yl)benzyl)-5-fluoro-2-methoxybenzamide]
5 to 10 nM | COc1ccc(F)cc1C(=O)NCc1ccc(-c2nc(C(C)C(F)(F)F)c(-c3ncccn3)c3[nH]nc(N)c23)cc1 (stereo not shown) [Example 7, N-(4-(3-amino-7-(pyrimidin-2-yl)-6-(1,1,1-trifluoropropan-2-yl)-1H-pyrazolo[4,3-c]pyridin-4-yl)benzyl)-5-fluoro-2-methoxybenzamide]
5 to 10 nM | COc1ccc(F)cc1C(=O)NCc1ccc(-c2nc(C3CCSCC3)cc3[nH]nc(N)c23)cc1 [Example 91, N-(4-(3-amino-6-(tetrahydro-2H-thiopyran-4-yl)-1H-pyrazolo[4,3-c]pyridin-4-yl)benzyl)-5-fluoro-2-methoxybenzamide]
≤ 5 nM | COc1ccc(F)cc1C(=O)NCc1ccc(-c2ncc(-c3ccc(CN4CCN(C)CC4)cn3)c3[nH]nc(N)c23)cc1 [Example 68, N-(4-(3-amino-7-(5-((4-methylpiperazin-1-yl)methyl)pyridin-2-yl)-1H-pyrazolo[4,3-c]pyridin-4-yl)benzyl)-5-fluoro-2-methoxybenzamide]
≤ 5 nM | COc1ccc(F)cc1C(=O)NCc1ccc(-c2nc(C(C)C(F)(F)F)c(-c3ccn(C)n3)c3[nH]nc(N)c23)cc1 (single isomer, unassigned) [Example 6-1, N-(4-(3-amino-7-(1-methyl-1H-pyrazol-3-yl)-6-(1,1,1-trifluoropropan-2-yl)-1H-pyrazolo[4,3-c]pyridin-4-yl)benzyl)-5-fluoro-2-methoxybenzamide]
≤ 5 nM | COc1ccc(F)cc1C(=O)NCc1ccc(-c2nc([C@H]3CC[C@H](CO)CC3)cc3[nH]nc(N)c23)cc1 [Example 117, N-(4-(3-amino-6-((1r,4r)-4-(hydroxymethyl)cyclohexyl)-1H-pyrazolo[4,3-c]pyridin-4-yl)benzyl)-5-fluoro-2-methoxybenzamide]
≤ 5 nM | COc1ccc(F)cc1C(=O)NCc1ccc(-c2ncc(-c3nc4cccnc4s3)c3[nH]nc(N)c23)cc1 [Example 100, N-(4-(3-amino-7-(thiazolo[5,4-b]pyridin-2-yl)-1H-pyrazolo[4,3-c]pyridin-4-yl)benzyl)-5-fluoro-2-methoxybenzamide]
≤ 5 nM | CNC(=O)Cn1ccc(-c2cnc(-c3ccc(CNC(=O)c4cc(F)ccc4OC)cc3)c3c(N)n[nH]c23)n1 [Example 26, N-(4-(3-amino-7-(1-(2-(methylamino)-2-oxoethyl)-1H-pyrazol-3-yl)-1H-pyrazolo[4,3-c]pyridin-4-yl)benzyl)-5-fluoro-2-methoxybenzamide]
> 50 nM | COc1ccc(F)cc1C(=O)NCc1ccc(-c2ncc(-c3ccncc3)c3[nH]nc(N)c23)cc1 [Example 106, N-(4-(3-amino-7-(pyridin-4-yl)-1H-pyrazolo[4,3-c]pyridin-4-yl)benzyl)-5-fluoro-2-methoxybenzamide]
5 to 10 nM | COc1ccc(F)cc1C(=O)NCc1ccc(-c2ncc(-c3ccc4nccn4n3)c3[nH]nc(N)c23)cc1 [Example 51, N-(4-(3-amino-7-(imidazo[1,2-b]pyridazin-6-yl)-1H-pyrazolo[4,3-c]pyridin-4-yl)benzyl)-5-fluoro-2-methoxybenzamide]
10 to 50 nM | COc1ccc(F)cc1C(=O)NCc1ccc(-c2ncc(-c3nc4cnccn4n3)c3[nH]nc(N)c23)cc1 [Example 57, N-(4-(7-([1,2,4]triazolo[1,5-a]pyrazin-2-yl)-3-amino-1H-pyrazolo[4,3-c]pyridin-4-yl)benzyl)-5-fluoro-2-methoxybenzamide]
> 50 nM | COc1ccc(F)cc1C(=O)NCc1ccc(-c2ncc(-c3cccnc3)c3[nH]nc(N)c23)cc1 [Example 105, N-(4-(3-amino-7-(pyridin-3-yl)-1H-pyrazolo[4,3-c]pyridin-4-yl)benzyl)-5-fluoro-2-methoxybenzamide]
≤ 5 nM | COc1ccc(F)cc1C(=O)NCc1ccc(-c2ncc(-c3ccc(OCCN(C)C)cn3)c3[nH]nc(N)c23)cc1 [Example 60, N-(4-(3-amino-7-(5-(2-(dimethylamino)ethoxy)pyridin-2-yl)-1H-pyrazolo[4,3-c]pyridin-4-yl)benzyl)-5-fluoro-2-methoxybenzamide]
≤ 5 nM | COc1ccc(F)cc1C(=O)NCc1ccc(-c2ncc(-c3ccc(CN4CCOCC4)cn3)c3[nH]nc(N)c23)cc1 [Example 67, N-(4-(3-amino-7-(5-(morpholinomethyl)pyridin-2-yl)-1H-pyrazolo[4,3-c]pyridin-4-yl)benzyl)-5-fluoro-2-methoxybenzamide]
5 to 10 nM | COc1ccc(F)cc1C(=O)NCc1ccc(-c2nc(C(C)C(F)(F)F)cc3[nH]nc(N)c23)cc1 (single isomer, unassigned) [Example 2, N-(4-(3-amino-6-(1,1,1-trifluoropropan-2-yl)-1H-pyrazolo[4,3-c]pyridin-4-yl)benzyl)-5-fluoro-2-methoxybenzamide]
10 to 50 nM | COc1ccc(F)cc1C(=O)NCc1ccc(-c2ncc(-c3cnccn3)c3[nH]nc(N)c23)cc1 [Example 18, N-(4-(3-amino-7-(pyrazin-2-yl)-1H-pyrazolo[4,3-c]pyridin-4-yl)benzyl)-5-fluoro-2-methoxybenzamide]
≤ 5 nM | COc1ccc(F)cc1C(=O)NCc1ccc(-c2ncc(-c3ccc(N4CCN(C)C[C@@H]4C)cn3)c3[nH]nc(N)c23)cc1 [Example 74, (S)-N-(-4-(3-amino-7-(5-(2,4-dimethylpiperazin-1-yl)pyridin-2-yl) 1H-pyrazolo[4,3-c]pyridin-4-yl)benzyl)-5-fluoro-2-methoxybenzamide]
10 to 50 nM | COc1ccc(F)cc1C(=O)NCc1ccc(-c2ncc(-c3ccc4c(n3)nc3n4C(C)COC3)c3[nH]nc(N)c23)cc1 (stereo not shown) [Example 103, N-(4-(3-amino-7-(6-methyl-6,7-dihydro-9H-pyrido[2',3':4,5]imidazo[2,1-c][1,4]oxazin-2-yl)-1H-pyrazolo[4,3-c]pyridin-4-yl)benzyl)-5-fluoro-2-methoxybenzamide]
≤ 5 nM | COc1ccc(F)cc1C(=O)NCc1ccc(-c2ncc(-c3cc4ncccn4n3)c3[nH]nc(N)c23)cc1 [Example 44, N-(4-(3-amino-7-(pyrazolo[1,5-a]pyrimidin-2-yl)-1H-pyrazolo[4,3-c]pyridin-4-yl)benzyl)-5-fluoro-2-methoxybenzamide]
≤ 5 nM | COc1ccc(F)cc1C(=O)NCc1ccc(-c2nc(C3CCOCC3)cc3[nH]nc(N)c23)cc1 [Example 115, N-(4-(3-amino-6-(tetrahydro-2H-pyran-4-yl)-1H-pyrazolo[4,3-c]pyridin-4-yl)benzyl)-5-fluoro-2-methoxybenzamide]
10 to 50 nM | COc1ccc(F)cc1C(=O)NCc1ccc(-c2ncc(-c3ncc(F)cn3)c3[nH]nc(N)c23)cc1 [Example 36, N-(4-(3-amino-7-(5-fluoropyrimidin-2-yl)-1H-pyrazolo[4,3-c]pyridin-4-yl)benzyl)-5-fluoro-2-methoxybenzamide]
≤ 5 nM | COc1ccc(F)cc1C(=O)NCc1ccc(-c2ncc(-c3nccn4cccc34)c3[nH]nc(N)c23)cc1 [Example 77, N-(4-(3-amino-7-(pyrrolo[1,2-a]pyrazin-1-yl)-1H-pyrazolo[4,3-c]pyridin-4-yl)benzyl)-5-fluoro-2-methoxybenzamide]
≤ 5 nM | COc1ccc(F)cc1C(=O)NCc1ccc(-c2ncc(-c3cc4n(n3)CCN(C)C4)c3[nH]nc(N)c23)cc1 [Example 71, N-(4-(3-amino-7-(5-methyl-4,5,6,7-tetrahydropyrazolo[1,5-a]pyrazin-2-yl)-1H-pyrazolo[4,3-c]pyridin-4-yl)benzyl)-5-fluoro-2-methoxybenzamide]
≤ 5 nM | COc1ccc(F)cc1C(=O)NCc1ccc(-c2nc(C(F)F)c(-c3ncccn3)c3[nH]nc(N)c23)cc1 [Example 85, N-(4-(3-amino-6-(difluoromethyl)-7-(pyrimidin-2-yl)-1H-pyrazolo[4,3-c]pyridin-4-yl)benzyl)-5-fluoro-2-methoxybenzamide]

Same assay, conditions: phosphorylated BTK Y223, Ramos cells with BTK WT

IC50 | SMILES
5 to 10 nM | COc1ccc(F)cc1C(=O)NCc1ccc(-c2nc(C(C)C(F)(F)F)c(-c3ncccn3)c3[nH]nc(N)c23)cc1 (single isomer, unassigned) [Example 7-2, N-(4-(3-amino-7-(pyrimidin-2-yl)-6-(1,1,1-trifluoropropan-2-yl)-1H-pyrazolo[4,3-c]pyridin-4-yl)benzyl)-5-fluoro-2-methoxybenzamide]
